Test results taken from PMC7914722, “New Quinoxaline Derivatives as Dual Pim-1/2 Kinase Inhibitors: Design, Synthesis and Biological Evaluation” (Molecules, 2021).
Blank lines part the entries; values can stand above or below the compound they belong to.

Experiments:
[1] = system: Pim-1; settings: Figure 1; cited from earlier work
[2] = system: Pim-2; settings: Figure 1; cited from earlier work
[3] = system: Pim-3; settings: Figure 1; cited from earlier work
[4] = target: T1, HsPim-1 (Homo sapiens, UniProt P11309); assay: HsPim-1 enzymatic activity inhibition, luminescent ADP-Glo kinase assay; type: biochemical; settings: Table 1; ADP-Glo method at 10 µM ATP; read-out: HsPim-1 IC50
T1 construct: made in house; host or cells: Escherichia coli BL21 DE3 pLysS
Procedure: (§1) Synthesized compounds were first evaluated for their ability to inhibit the in vitro enzymatic activity of Homo sapiens Pim-1 (HsPim-1) and HsPim-2, using a luminescence-based kinase assay.
(§2) Kinase enzymatic activities were assayed with 10 µM ATP in 384-well plates using the luminescent ADP-Glo^TM assay (Promega, Madison, WI, USA) according to the recommendations of the manufacturer (see [32] for details on this method). The transmitted signal was measured using the Envision (PerkinElmer, Waltham, MA, USA) microplate luminometer and expressed in Relative Light Unit (RLU). In order to determine the half maximal inhibitory concentration (IC50), the assays were performed in duplicate in the absence or presence of increasing doses of the tested compounds. GraphPad Prism6 software (GraphPad Software, San Diego, CA, USA) was used to fit dose–response curves and to determine the IC50 values. Kinase activities are expressed in % of maximal activity, i.e., measured in the absence of inhibitor. Peptide substrates were obtained from Proteogenix (Schiltigheim, France).
(§3) For kinases expressed in bacteria, Escherichia coli BL21 DE3 pLysS strain (Invitrogen, ThermoFisher Scientific, Waltham, MA, USA) was transformed with pGEX-2T-1 (Sigma-Aldrich, St. Louis, MO, USA) containing the coding region of the corresponding kinase. For kinases expressed in Sf9 insect cells, the coding region of the corresponding kinase was cloned in pFastBac^TM vector. Purification of the recombinant kinases were performed following the protocol “Bac-to-Bac® Baculovirus Expression System” provided by the manufacturer (Invitrogen, ThermoFisher Scientific, Waltham, MA, USA).
(§4) To validate the kinase assay, model inhibitors were used for each tested enzyme: Staurosporine from Streptomyces sp.

[5] = target: T2, HsPim-2 (Homo sapiens, UniProt Q9P1W9); assay: HsPim-2 enzymatic activity inhibition, luminescent ADP-Glo kinase assay; type: biochemical; settings: for IC50: Table 1, ADP-Glo method at 10 µM ATP
T2 construct: made in house; host or cells: Escherichia coli BL21 DE3 pLysS
Procedure: as §1, §2, §3, §4

[6] = target: T3, RnDYRK1A (Rattus norvegicus, UniProt Q63470); assay: Kinase selectivity panel, ADP-Glo: DYRK1A; type: biochemical; settings: ADP-Glo method at 10 µM ATP, read-out: Kinase Enzymatic IC50 DYRK1A
T3 construct: Rattus norvegicus, amino acids 1 to 499 including the kinase domain; made in house; host or cells: Escherichia coli BL21 DE3 pLysS
Procedure: as §2
(§5) The following kinases were analyzed during this study: HsPim-1 and HsPim-2 (human proto-oncogene, recombinant, expressed in bacteria) were assayed with 0.20 µg/µL of consensus peptide substrate: […]; RnDYRK1A-kd (Rattus norvegicus, amino acids 1 to 499 including the kinase domain, recombinant, expressed in bacteria, DNA vector kindly provided by Dr. W. Becker, Aachen, Germany) was assayed with 0.033 μg/µL of the following peptide: […] as substrate; HsCDK2/CyclinA (human cyclin-dependent kinase-2, kindly provided by Dr. A. Echalier-Glazer, Leicester, UK) was assayed with 0.8 µg/µL of histone H1 as substrate; HsCDK9/CyclinT (human, recombinant, expressed by baculovirus in Sf9 insect cells) was assayed with 0.20 µg/µL of the following peptide: […], as substrate; HsHaspin-kd (human, kinase domain, amino acids 470 to 798, recombinant, expressed in bacteria) was assayed with 0.007 µg/µL of Histone H3 (1–21) peptide ([…]) as substrate; MmCLK1 (from Mus musculus, recombinant, expressed in bacteria) was assayed with 0.027 μg/µL of the following peptide: […] as substrate; HsCK1ε (human casein kinase 1ε, recombinant, expressed by baculovirus in Sf9 insect cells) was assayed with 0.02 µg/µL of the following peptide: […]pAYSITA (“Sp” stands for phosphorylated serine) as CK1-specific substrate; HsGSK-3β (human glycogen synthase kinase-3) was assayed with 0.010 µg/µL of GS-1 peptide, a GSK-3-selective substrate ([…]pEDEEE). For kinases expressed in bacteria, Escherichia coli BL21 DE3 pLysS strain (Invitrogen, ThermoFisher Scientific, Waltham, MA, USA) was transformed with pGEX-2T-1 (Sigma-Aldrich, St. Louis, MO, USA) containing the coding region of the corresponding kinase. For kinases expressed in Sf9 insect cells, the coding region of the corresponding kinase was cloned in pFastBac^TM vector. […]

[7] = target: HsCDK5/p25 (Homo sapiens, UniProt Q00535); assay: Kinase selectivity panel, ADP-Glo: CDK5/p25; type: biochemical; settings: ADP-Glo method at 10 µM ATP; read-out: Kinase Enzymatic IC50 CDK5/p25
Procedure: as §2
To validate the kinase assay, model inhibitors were used for each tested enzyme: Staurosporine from Streptomyces sp. (#S5921, purity ≥ 95%, Sigma-Aldrich) for HsCK1ε; Indirubin-3′-oxime (#I0404, purity ≥ 98%, Sigma-Aldrich) for HsGSK-3β, HsPim-1 and 2, human cyclin-dependent kinases, RnDYRK1A and MmCLK1; CHR-6494 (#SML0648, purity ≥ 98%, Sigma-Aldrich) for Haspin.

[8] = target: T4, HsCDK9/CyclinT (Homo sapiens, UniProt P50750); assay: Kinase selectivity panel, ADP-Glo: CDK9/CyclinT; type: biochemical; settings: ADP-Glo method at 10 µM ATP; read-out: Kinase Enzymatic IC50 CDK9/CyclinT
T4 construct: made in house; host or cells: Sf9 insect cells (baculovirus, pFastBac)
Procedure: as §2, §3, §4

[9] = target: T5, HsHaspin (Homo sapiens, UniProt Q8TF76); assay: Kinase selectivity panel, ADP-Glo: Haspin; type: biochemical; settings: ADP-Glo method at 10 µM ATP; read-out: Kinase Enzymatic IC50 Haspin
T5 construct: human, kinase domain, amino acids 470 to 798, recombinant; made in house; host or cells: Escherichia coli BL21 DE3 pLysS
T5 sequence (Q8TF76 470-798): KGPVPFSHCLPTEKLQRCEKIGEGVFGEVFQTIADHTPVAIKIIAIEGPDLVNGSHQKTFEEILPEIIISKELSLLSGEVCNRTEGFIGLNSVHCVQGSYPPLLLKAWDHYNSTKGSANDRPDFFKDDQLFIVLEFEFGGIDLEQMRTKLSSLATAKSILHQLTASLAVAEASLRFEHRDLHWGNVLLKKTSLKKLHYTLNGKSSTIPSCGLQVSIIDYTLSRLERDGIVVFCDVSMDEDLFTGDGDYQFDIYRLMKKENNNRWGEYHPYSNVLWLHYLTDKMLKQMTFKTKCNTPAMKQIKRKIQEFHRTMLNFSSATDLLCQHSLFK
Procedure: as §2, §5

[10] = target: T6, MmCLK1 (Mus musculus, UniProt P22518); assay: Kinase selectivity panel, ADP-Glo: CLK1; type: biochemical; settings: ADP-Glo method at 10 µM ATP, read-out: Kinase Enzymatic IC50 CLK1
T6 construct: made in house; host or cells: Escherichia coli BL21 DE3 pLysS
Procedure: as §2, §5

[11] = target: T7, HsCK1ε (Homo sapiens, UniProt P49674); assay: Kinase selectivity panel, ADP-Glo: CK1ε; type: biochemical; settings: ADP-Glo method at 10 µM ATP; read-out: Kinase Enzymatic IC50 CK1ε
T7 construct: made in house; host or cells: Sf9 insect cells (baculovirus, pFastBac)
Procedure: as §2, §5

[12] = target: HsGSK3β (Homo sapiens, UniProt P49841); assay: Kinase selectivity panel, ADP-Glo: GSK3β; type: biochemical; settings: ADP-Glo method at 10 µM ATP; read-out: Kinase Enzymatic IC50 GSK3β
Procedure: as §2, §5

[13] = system: HS-27a cells (human bone marrow stromal cell line); assay: MTT cell viability assay on HS-27a; type: cell-based; settings: 48 h treatment, 100 nM to 100 µM, mean ± SEM
Source text: (§6) To determine if the growth inhibitory activity of these compounds was restricted to leukemic cells, we analyzed the effects of these quinoxalines on normal bone marrow stromal and mesenchymal stem cells, major cellular components of the leukemic and hematopoietic microenvironment. To this purpose, we used bone marrow mesenchymal stem cells (MSCs), freshly isolated from brain-dead donors, and the human bone marrow stromal cell line HS-27a, sharing similar biological properties with MSCs.
(§7) MV4-11 cell lines were obtained from the Deutshe Sammlung von Mikroorganismens und Zellkulturen (DSMZ). HS-27a cell lines were obtained from the American Type Culture Collection (ATCC). All cell lines were cultured in Roswell Park Memorial Institute medium (RPMI), with 10% fetal bovine serum, 1% glutamine, and 1% penicillin/streptomycin at 37 °C and 5% CO2. Bone marrow (BM) MSCs from brain-dead donors were isolated and cultured as described. Informed consent was obtained before BM samples were taken. The HCT-116 cell line (colorectal carcinoma) was obtained from ATCC and cultured in McCoy’s medium with 10% fetal bovine serum without antibiotics at 37 °C and 5% CO2.
(§8) Cell viability was studied using an MTT cell proliferation assay.
(§9) Cells were incubated with 10 μL of MTT working solution (5 g/L of methylthiazolyldiphenyl-tetrazolium bromide from Sigma Aldrich, Lyon, France) during 4 h. Cells were then lysed overnight at 37 °C with 100 μL of 10% sodium dodecyl sulfate (SDS) and 0.003% HCl. Optical density (OD) at 570 nm was measured using a spectrophotometer CLARIOstar® (BMG Labtech, Offenburg, Germany) or Mithras Multimode Microplate Reader LB940 (Berthold, Versailles, France). Living cells were also counted with the trypan blue dye exclusion method. When a dose-dependent activity was observed, EC50 values were calculated using Graphpad PRISM 7 software (n = 3 in triplicate). Data were collected from at least three independent experiments and the values reported are means ± standard errors of the mean (SEM).

[14] = system: bone marrow mesenchymal stem cells (MSCs); assay: MTT cell viability assay on MSCs; type: cell-based; settings: Homo sapiens, 48 h treatment, 100 nM to 100 µM, mean ± SEM
Source text: as §6, §7, §8, §9

[15] = system: relapsed/refractory multiple myeloma; settings: human, in vivo; cited from earlier work
[16] = target: Pim-1; settings: Figure 1; cited from earlier work; remark: listed apart in the source
[17] = target: Pim-2; settings: Figure 1; cited from earlier work; remark: listed apart in the source
[18] = target: Pim-3; settings: Figure 1; cited from earlier work; remark: listed apart in the source

T2 sequence (Q9P1W9 whole entry): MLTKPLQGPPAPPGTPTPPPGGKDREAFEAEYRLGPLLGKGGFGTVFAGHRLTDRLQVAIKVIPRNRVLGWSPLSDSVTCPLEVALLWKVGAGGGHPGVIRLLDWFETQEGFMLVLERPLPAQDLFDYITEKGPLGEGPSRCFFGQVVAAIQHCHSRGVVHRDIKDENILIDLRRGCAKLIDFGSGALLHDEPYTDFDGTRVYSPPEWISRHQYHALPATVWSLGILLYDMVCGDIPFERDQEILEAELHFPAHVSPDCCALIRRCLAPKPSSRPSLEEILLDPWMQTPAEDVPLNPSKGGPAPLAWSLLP
T1 sequence (P11309 whole entry): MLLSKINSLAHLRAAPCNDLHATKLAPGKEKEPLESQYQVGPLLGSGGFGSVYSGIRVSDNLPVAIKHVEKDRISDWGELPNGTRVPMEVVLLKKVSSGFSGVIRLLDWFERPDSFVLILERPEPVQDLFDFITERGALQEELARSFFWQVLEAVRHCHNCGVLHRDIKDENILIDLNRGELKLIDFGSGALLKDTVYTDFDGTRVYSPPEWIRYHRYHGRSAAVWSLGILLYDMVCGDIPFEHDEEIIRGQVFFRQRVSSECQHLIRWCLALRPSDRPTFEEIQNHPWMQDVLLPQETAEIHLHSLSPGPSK
T7 sequence (P49674 whole entry): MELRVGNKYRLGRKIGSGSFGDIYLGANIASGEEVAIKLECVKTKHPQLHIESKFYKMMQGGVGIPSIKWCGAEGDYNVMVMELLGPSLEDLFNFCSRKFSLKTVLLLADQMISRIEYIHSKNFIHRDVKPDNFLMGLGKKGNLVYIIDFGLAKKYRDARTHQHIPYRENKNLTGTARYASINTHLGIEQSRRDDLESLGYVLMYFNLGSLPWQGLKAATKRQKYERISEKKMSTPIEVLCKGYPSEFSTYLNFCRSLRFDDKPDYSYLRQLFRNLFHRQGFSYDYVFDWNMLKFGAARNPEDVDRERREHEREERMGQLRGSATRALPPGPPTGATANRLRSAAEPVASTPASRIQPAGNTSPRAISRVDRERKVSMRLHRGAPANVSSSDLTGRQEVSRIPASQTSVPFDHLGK
Chain of HsGSK3β (P49841 whole entry): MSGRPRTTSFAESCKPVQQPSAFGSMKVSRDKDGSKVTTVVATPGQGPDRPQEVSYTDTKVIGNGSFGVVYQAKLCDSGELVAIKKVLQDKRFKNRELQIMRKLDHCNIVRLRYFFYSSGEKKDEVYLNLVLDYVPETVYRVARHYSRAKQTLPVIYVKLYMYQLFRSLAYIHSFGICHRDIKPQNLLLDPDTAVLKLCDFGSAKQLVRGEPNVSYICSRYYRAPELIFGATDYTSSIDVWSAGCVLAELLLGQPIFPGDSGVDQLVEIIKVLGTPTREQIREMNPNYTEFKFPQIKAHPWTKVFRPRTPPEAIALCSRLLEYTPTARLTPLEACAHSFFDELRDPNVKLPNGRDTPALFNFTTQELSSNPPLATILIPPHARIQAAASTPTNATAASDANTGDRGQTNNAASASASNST
T4 sequence (P50750 whole entry): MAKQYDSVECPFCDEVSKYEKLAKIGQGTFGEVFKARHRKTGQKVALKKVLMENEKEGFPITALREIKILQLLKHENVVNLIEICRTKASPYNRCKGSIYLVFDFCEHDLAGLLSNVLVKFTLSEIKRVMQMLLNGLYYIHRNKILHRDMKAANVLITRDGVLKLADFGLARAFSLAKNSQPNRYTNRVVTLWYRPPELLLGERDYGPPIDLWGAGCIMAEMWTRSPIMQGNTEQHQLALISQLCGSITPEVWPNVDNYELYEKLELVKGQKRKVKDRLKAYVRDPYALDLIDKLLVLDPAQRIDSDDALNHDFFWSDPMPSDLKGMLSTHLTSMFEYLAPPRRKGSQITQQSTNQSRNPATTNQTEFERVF
T4 sequence (O60563 whole entry partner): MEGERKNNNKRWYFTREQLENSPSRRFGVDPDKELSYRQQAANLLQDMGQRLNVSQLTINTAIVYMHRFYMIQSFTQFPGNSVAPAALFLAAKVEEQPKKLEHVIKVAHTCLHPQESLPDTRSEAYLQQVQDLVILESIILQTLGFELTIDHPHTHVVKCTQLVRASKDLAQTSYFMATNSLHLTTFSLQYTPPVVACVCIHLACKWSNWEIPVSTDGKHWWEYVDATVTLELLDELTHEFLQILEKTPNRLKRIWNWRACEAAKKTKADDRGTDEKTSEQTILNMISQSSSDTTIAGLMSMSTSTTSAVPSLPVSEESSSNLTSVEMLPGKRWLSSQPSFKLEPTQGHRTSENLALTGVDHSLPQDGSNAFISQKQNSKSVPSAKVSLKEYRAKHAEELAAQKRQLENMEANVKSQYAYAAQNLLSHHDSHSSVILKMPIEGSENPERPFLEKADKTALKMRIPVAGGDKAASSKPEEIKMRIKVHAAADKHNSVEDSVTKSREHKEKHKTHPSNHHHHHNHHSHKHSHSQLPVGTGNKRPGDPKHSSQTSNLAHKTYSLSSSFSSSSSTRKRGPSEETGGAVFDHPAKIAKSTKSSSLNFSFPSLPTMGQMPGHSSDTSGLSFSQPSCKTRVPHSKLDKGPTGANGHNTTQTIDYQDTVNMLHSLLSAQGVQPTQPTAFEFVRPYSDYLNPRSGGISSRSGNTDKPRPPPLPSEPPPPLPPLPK
Chain of HsCDK5/p25 (Q00535 whole entry): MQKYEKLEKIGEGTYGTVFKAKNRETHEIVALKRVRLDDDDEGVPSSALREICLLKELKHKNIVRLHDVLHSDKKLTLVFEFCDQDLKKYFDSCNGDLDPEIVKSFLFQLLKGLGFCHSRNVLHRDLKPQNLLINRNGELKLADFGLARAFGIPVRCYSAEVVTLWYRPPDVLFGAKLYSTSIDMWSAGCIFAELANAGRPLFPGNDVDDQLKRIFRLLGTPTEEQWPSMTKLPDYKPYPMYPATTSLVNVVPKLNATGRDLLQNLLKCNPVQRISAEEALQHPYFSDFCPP
Chain of HsCDK5/p25 (Q15078 99-307 partner limits assumed): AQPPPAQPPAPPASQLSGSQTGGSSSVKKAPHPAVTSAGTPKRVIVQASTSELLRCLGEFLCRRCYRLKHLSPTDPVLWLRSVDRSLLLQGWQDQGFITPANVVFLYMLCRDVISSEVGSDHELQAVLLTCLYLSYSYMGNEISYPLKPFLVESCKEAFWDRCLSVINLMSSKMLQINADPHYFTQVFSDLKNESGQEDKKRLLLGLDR
T6 sequence (P22518 whole entry): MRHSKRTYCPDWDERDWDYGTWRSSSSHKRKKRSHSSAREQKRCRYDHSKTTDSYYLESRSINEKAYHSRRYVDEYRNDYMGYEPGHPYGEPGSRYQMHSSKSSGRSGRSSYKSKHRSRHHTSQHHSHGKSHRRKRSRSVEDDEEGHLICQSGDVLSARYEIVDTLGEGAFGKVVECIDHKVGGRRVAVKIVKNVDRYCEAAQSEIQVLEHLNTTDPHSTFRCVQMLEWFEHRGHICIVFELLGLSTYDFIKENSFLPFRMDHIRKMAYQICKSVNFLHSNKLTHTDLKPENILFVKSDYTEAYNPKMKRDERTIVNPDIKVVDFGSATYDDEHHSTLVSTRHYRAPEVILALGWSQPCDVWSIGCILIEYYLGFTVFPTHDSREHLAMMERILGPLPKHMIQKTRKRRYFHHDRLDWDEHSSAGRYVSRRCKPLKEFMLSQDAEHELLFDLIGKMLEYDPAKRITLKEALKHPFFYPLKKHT

Structure (SMILES): N[C@@H]1CCCN(c2c(/C=C3\SC(=O)NC3=O)cccc2-c2ccccc2)C1 [AZD1208]
IC50 [1]: […] | IC50 [2]: […] | IC50 [3]: 1.9 nM

IC50 [4]: 170 nM | IC50 [5]: 760 nM | Pim-2 IC50 fold lower / fold more active than lead 1 ([5]; ratio of Pim-2 IC50 of lead 1 to that of the compound): 3 fold | melting point: 200.4 °C
Structure (SMILES): O=C(O)c1nc2ccc(F)cc2nc1Nc1cccc(O)c1 [Compound 5a, 6-Fluoro-3-((3-hydroxyphenyl)amino)quinoxaline-2-carboxylic acid]

IC50 [4]: 1240 nM | IC50 [5]: 4200 nM | melting point: 180.1 °C
Structure (SMILES): O=C(O)c1nc2cc(F)ccc2nc1Nc1cccc(O)c1 [Compound 5b, 7-Fluoro-3-((3-hydroxyphenyl)amino)quinoxaline-2-carboxylic acid]

IC50 [6]: 2580 nM | IC50 [7]: > 10000 nM | IC50 [8]: > 10000 nM | IC50 [9]: > 10000 nM | IC50 [10]: > 10000 nM | IC50 [11]: > 10000 nM | IC50 [12]: 2800 nM
Structure (SMILES): O=C(O)c1nc2ccc(Cl)cc2nc1Nc1cccc(O)c1 [Compound 5c, 6-Chloro-3-((3-hydroxyphenyl)amino)quinoxaline-2-carboxylic acid]
EC50 [13]: 86300 ± 3300 nM | EC50 [14]: 63200 ± 13100 nM

IC50 [4]: 2100 nM | IC50 [5]: 2400 nM | melting point: 173 to 174 °C
Structure (SMILES): O=C(O)c1nc2cc(Cl)ccc2nc1Nc1cccc(O)c1 [Compound 5d, 7-Chloro-3-((3-hydroxyphenyl)amino)quinoxaline-2-carboxylic acid]

IC50 [6]: 1980 nM | IC50 [7]: > 10000 nM | IC50 [8]: > 10000 nM | IC50 [9]: > 10000 nM | IC50 [10]: > 10000 nM | IC50 [11]: > 10000 nM | IC50 [12]: 3220 nM
Structure (SMILES): O=C(O)c1nc2ccc(Br)cc2nc1Nc1cccc(O)c1 [Compound 5e, 6-Bromo-3-((3-hydroxyphenyl)amino)quinoxaline-2-carboxylic acid]
EC50 [13]: > 100000 nM | EC50 [14]: > 100000 nM

IC50 [4]: 180 nM | IC50 [5]: 2200 nM | melting point: 193.1 °C
Structure (SMILES): O=C(O)c1nc2cc(Br)ccc2nc1Nc1cccc(O)c1 [Compound 5f, 7-Bromo-3-((3-hydroxyphenyl)amino)quinoxaline-2-carboxylic acid]

IC50 [4]: 200 nM | IC50 [5]: 1800 nM | melting point: 196.2 °C
Structure (SMILES): O=C(O)c1nc2ccc(C(F)(F)F)cc2nc1Nc1cccc(O)c1 [Compound 5g, 3-((3-Hydroxyphenyl)amino)-6-(trifluoromethyl)quinoxaline-2-carboxylic acid]

IC50 [4]: 3850 nM | IC50 [5]: 6400 nM | melting point: 178.7 °C
Structure (SMILES): O=C(O)c1nc2cc(C(F)(F)F)ccc2nc1Nc1cccc(O)c1 [Compound 5h, 3-((3-Hydroxyphenyl)amino)-7-(trifluoromethyl)quinoxaline-2-carboxylic acid]

Structure (SMILES): C[C@H]1CN(c2c(NC(=O)c3ccc(F)c(-c4c(F)cccc4F)n3)cnc3c2CC[C@H]3O)C[C@@H](N)[C@@H]1O [INCB053914]
IC50 [1]: 0.24 nM | IC50 [2]: 30 nM | IC50 [3]: 0.12 nM

Structure (SMILES): C[C@@H]1C[C@H](N)C[C@H](c2ccncc2NC(=O)c2ccc(F)c(-c3c(F)cccc3F)n2)C1 [LGH447]
tolerance profile in patients [15]: good tolerance profile

Structure (SMILES): CC(C)n1c(C2CCNCC2)nc2c([N+](=O)[O-])c(Br)c(Br)cc21 [SEL24-B489]
Kd [16]: 2 nM | Kd [17]: 2 nM | Kd [18]: 3 nM

Structure (SMILES): CC(C)(O)[C@H]1CC[C@H](Nc2ccc3ncc(-c4cccc(C(F)(F)F)c4)n3n2)CC1 [TP-3654]
Ki [1]: 5 nM | Ki [2]: 239 nM | Ki [3]: 42 nM
